System: Jurkat cells
Experiment: Immunoblot of caspase 3 in Jurkat cells
Format: cell-based, human
Conditions: for cell apoptosis / Caspase 3 activation: Jurkat 5M per well, 2 nM-1000 nM, 12 hours; for cell apoptosis, immunoblot of caspase 3: Jurkat cells, 12 hours at 10 nM; for caspase-3 cleavage in Jurkat cells: dose-dependent, immunoblot
Text: FIG. 1. Portimine A is non-toxic to primary human PBMCs. Portimine A and its functional analogs show stereo-selective acute toxicity in cancer cells. […] (B) Structure of portimine related analogs: phenyl-portimine A (Ph-PA, 36) and epi-portimine A (ePA, 38). Structure of fully functionalized portimine A-based epimeric probe pair: portimine A-diazirine-alkyne (PA-DA, 35-2) and epi-portimine A-diazirine-alkyne (ePA-DA, 35-1). (C) Cell viability analysis of portimine A and analogs. Jurkat cells were treated with increasing concentrations of portimine A and analogs for 24 hours. All presented data as mean of biological replicated experiments (n=3). […] Jurkat cells were treated with portimine A or analogs for 12 hours at 10 nM.
FIG. 3. Initial SAR studies: Assessing activity of PAL functionalized PTMA analogs. […] (A) PA and Ph-PA show less toxic to healthy PBMCs compared to Jurkat cells. […] (B) Immunoblot of caspase-3 in Jurkat and PBMCs with indicated conditions.
FIG. 5. […] (I, J) Confirmation of PA-DA engagement of NMD3 in Jurkat and HCC1806 cells. […] Treatment condition: Jurkat (5M per well). Portimine A concentration: 2 nM-1000 nM; In total treat cell for 12 hours.
• 1) Portimine A and its functional analogs show stereo-selective acute toxicity in cancer cells (FIG. 1). […] (B) Structure of portimine related analogs: phenyl-portimine A (Ph-PA, 36) and epi-portimine A (ePA, 38). Structure of fully functionalized portimine A-based epimeric probe pair: portimine A-diazirine-alkyne (PA-DA, 35-2) and epi-portimine A-diazirine-alkyne (ePA-DA, 35-1). (C) Cell viability analysis of portimine A and analogs. Jurkat cells were treated with increasing concentrations of portimine A and analogs for 24 hours. All presented data as mean of biological replicated experiments (n=3). […] Jurkat cells were treated with portimine A or analogs for 12 hours at 10 nM. […] Structurally related negative control ePA and PB are non-toxic in all cell types in the current concentrate range. PBMCs (25k per well), Jurkat (10k per well). […] Cell cycle analysis in Jurkat cells (FIG. 2). Jurkat cells were treated with 10 nM of indicated compounds for 24 hours, and propodium iodide was used to identify different stages of cells by flow cytometry. […] (A) PA and Ph-PA show less toxic to healthy PBMCs compared to Jurkat cells. […] (B) Immunoblot of caspase-3 in Jurkat and PBMCs with indicated conditions. […] (A) Pharmacokinetic studies of mouse intraperitoneal (i.p.) and oral (p.o.) administration for portimine (n=3). […] Impact of PA [0.3 or 1 mg/kg intraperitoneally] on MC38 tumor growth in WT mice (n=6). (C) Kaplan-Myer survival curve of WT MC38 tumor-bearing mice (n=6) after treatment with PA as described in (D). Mice were euthanized when tumor area exceeded 2000 mm^3. Statistical analysis was performed using ANOVA analysis followed by multiple comparisons test, * p≤0.05. Treatment condition: Jurkat (60 M per condition); PA-DA/ePA-DA concentration: 0.5 uM, PA or ePA: 5 uM; Incubate with probe with or without competitors (PA, ePA) for 30 min; UV irradiated for 20 min. (0.5 uM PA-DA add a no-UV condition), Standard pulldown & biotin-enrichment and western blot analysis (Elute condition: 2× sample buffer+500 uM biotin, boil for 20 mins); Primary antibody NMD3 (ProteinTech, 1:150), Actin (BioRad, 1:10000). […] Chemical proteomic profiling with PA-DA in Jurkat cells (A, B, C, G) and HCC1806 cells (D, E, F, H) show NMD3 is the primary target candidate of portimine A. Volcano plot in panels A and D show protein competition in cells treated with active photoaffinity probe PA-DA (500 nM) and DMSO or the active competitor portimine A (PA, […]), dotted lines indicate threshold of fold change <4, p-value>0.05. […] (I, J) Confirmation of PA-DA engagement of NMD3 in Jurkat and HCC1806 cells. […] Treatment condition: Jurkat (5M per well). Portimine A concentration: 2 nM-1000 nM; In total treat cell for 12 hours. […] Protein degradation of p53, Mcl1, Bid, Bim, Noxa can be rescued by MG132 or Epoxomicin. […]

Row | SMILES | cell apoptosis / Caspase 3 activation | cell apoptosis, immunoblot of caspase 3 | caspase-3 cleavage in Jurkat cells
1 | C=CC1=C[C@@H]2[C@@H]3O[C@]4(CC[C@H](O4)C(C)C[C@@H](O)C3=O)CC(O)C3=NCC[C@@]32CC1 (stereo partly shown) [PA, portimine A] | causes cell apoptosis in dose-dependent manner | induce cell apoptosis | induced caspase-3 cleavage in a dose-dependent manner
2 | C#CCCC1(CCNC(=O)c2ccc(C3=C[C@@H]4[C@@H]5O[C@]6(CC[C@H](O6)C(C)C[C@@H](O)C5=O)CC(O)C5=NCC[C@@]54CC3)cc2)N=N1 (stereo partly shown) [PA-DA, portimine A-diazirine-alkyne] | – | induce cell apoptosis | induced caspase-3 cleavage in a dose-dependent manner
3 | C=CC1=C[C@@H]2[C@@H]3OC4(CC[C@H](O4)C(C)C[C@@H](O)C3=O)CC(=O)C3=NCC[C@@]32CC1 (stereo partly shown) [PB, portimine B] | – | do not | –
4 | CC1C[C@@H](O)C(=O)[C@H]2O[C@]3(CC[C@@H]1O3)CC(O)C1=NCC[C@@]13CCC(c1ccccc1)=C[C@H]23 (stereo partly shown) [Ph-PA, phenyl-portimine A] | – | induce cell apoptosis | –
5 | C=CC1=C[C@@H]2[C@@H]3O[C@]4(CC[C@H](O4)C(C)C[C@@H](O)C3=O)C[C@@H](O)C3=NCC[C@@]32CC1 (stereo partly drawn) [ePA, epi-portimine A] | does not show significant Caspase 3 activation | do not | –
6 | C#CCCC1(CCNC(=O)c2ccc(C3=C[C@@H]4[C@@H]5O[C@]6(CC[C@H](O6)C(C)C[C@@H](O)C5=O)C[C@@H](O)C5=NCC[C@@]54CC3)cc2)N=N1 (stereo partly drawn) [ePA-DA, epi-portimine A-diazirine-alkyne] | – | do not | –
